Results taken from US8114894B2, “Bicyclic compounds and methods of making and using same” (Nanotherapeutics, Inc., priority 2008, dated 2012).
Counter-ions that a name gives are not always drawn.

Biological target: T1, human 5-HT4e receptor (Homo sapiens, UniProt Q13639)
T1 construct: expressed in transfected cells; host or cells: CHO cells
Assay: Binding affinity assay, radioligand [3H]GR 113808 binding in transfected CHO cell membrane homogenates
Settings: 0.3 nM [3H]GR 113808; for Ki: human 5-HT4e receptor in transfected CHO cells, read-out: KI (μM or % inhibition); for inhibition at 0.3 µM: @ 0.3 uM test compound; for inhibition at 0.3 µM / inhibition at 3 µM: read-out: KI (μM or % inhibition): percent inhibition of the control radioligand specific binding; for inhibition at 3 µM: @ 3 uM test compound
Protocol: The evaluation of the affinity of compounds for the human 5-HT4e receptor in transfected CHO cells was determined in a radioligand binding assay. Experimental protocol: Cell membrane homogenates (140 μg protein) were incubated for […] at 37° C. with 0.3 nM [3H]GR 113808 in the absence or presence of the test compound in a buffer containing 50 mM Hepes/Tris (pH 7.4) and 1 μM pargyline. Nonspecific binding was determined in the presence of 100 μM 5-HT. Following incubation, the samples were filtered rapidly under vacuum through glass fiber filters (GF/B, Packard) presoaked with 0.3% PEI and rinsed several times with ice-cold 50 mM Tris-HCl using a 96-sample cell harvester (Unifilter, Packard). The filters were dried then counted for radioactivity in a scintillation counter (Topcount, Packard) using a scintillation cocktail (Microscint 0, Packard). The results are expressed as a percent inhibition of the control radioligand specific binding at a certain concentration of the test compound. The test compound can also be assessed at several concentrations to obtain a competition curve from which its IC50 and Ki are calculated.

T1 sequence (Q13639 1-378 isoform Q13639-5): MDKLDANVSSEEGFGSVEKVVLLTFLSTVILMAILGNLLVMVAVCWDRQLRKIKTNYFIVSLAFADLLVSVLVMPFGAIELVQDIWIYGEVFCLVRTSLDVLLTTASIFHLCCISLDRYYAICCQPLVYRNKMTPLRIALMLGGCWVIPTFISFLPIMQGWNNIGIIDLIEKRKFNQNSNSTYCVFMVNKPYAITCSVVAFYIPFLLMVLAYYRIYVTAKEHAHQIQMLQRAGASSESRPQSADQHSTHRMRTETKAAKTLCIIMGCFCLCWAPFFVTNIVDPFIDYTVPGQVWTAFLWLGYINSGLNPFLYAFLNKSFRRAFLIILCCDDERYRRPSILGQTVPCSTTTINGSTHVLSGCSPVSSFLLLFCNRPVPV

Row | SMILES | Ki [µM] | inhibition at 0.3 µM [%] | inhibition at 3 µM [%]
1 | CC(C)n1cc(C(=O)C(=O)NCCCN2CCCCC2)c2ccccc21 [Example 1, 2-(1-Isopropyl-1H-indol-3-yl)-2-oxo-N-(3-(piperidin-1-yl)propyl)acetamide hydrochloride] | 0.007 |  | 
2 | CC(C)n1cc(C(=O)C(=O)NCCN2CCCCC2)c2ccccc21 [Example 2, 2-(1-Isopropyl-1H-indol-3-yl)-2-oxo-N-(2-(piperidin-1-yl)ethyl)acetamide hydrochloride] | 0.005 |  | 
3 | CCN(CC)CCNC(=O)C(=O)c1cn(C(C)C)c2ccccc12 [Example 3, N-(2-(Diethylamino)ethyl)-2-(1-isopropyl-1H-indol-3-yl)-2-oxoacetamide hydrochloride] | 0.008 |  | 
4 | CCn1cc(C(=O)C(=O)NCCN2CCCCC2)c2ccccc21 [Example 4, 2-(1-Ethyl-1H-indol-3-yl)-2-oxo-N-(2-(piperidin-1-yl)ethyl)acetamide hydrochloride] | 0.005 |  | 
5 | CCC(C)n1cc(C(=O)C(=O)NCCN2CCCCC2)c2ccccc21 (centres unmarked) [Example 5, 2-(1-sec-Butyl-1H-indol-3-yl)-2-oxo-N-(2-(piperidin-1-yl)ethyl)acetamide hydrochloride] | 0.031 |  | 
6 | CC(C)n1cc(C(=O)C(=O)NCCN2CCCCC2)c2cc(Cl)ccc21 [Example 6, 2-(5-Chloro-1-isopropyl-1H-indol-3-yl)-2-oxo-N-(2-(piperidin-1-yl)ethyl)acetamide hydrochloride] | 0.047 |  | 
7 | CC(C)n1cc(C(=O)C(=O)NCCN2CCCCC2)c2ccc([N+](=O)[O-])cc21 [Example 7, 2-(1-Isopropyl-6-nitro-1H-indol-3-yl)-2-oxo-N-(2-(piperidin-1-yl)ethyl)acetamide hydrochloride] | 2.7 |  | 
8 | CC(C)n1cc(C(=O)C(=O)NCCN2CCCCC2)c2ccc(N)cc21 [Example 8, 2-(6-Amino-1-isopropyl-1H-indol-3-yl)-2-oxo-N-(2-(piperidin-1-yl)ethyl)acetamide hydrochloride] | 0.75 |  | 
9 | CC(C)n1cc(C(=O)C(=O)NCCN2CCCCC2)c2ccc(N)c(Cl)c21 [Example 9, 2-(6-Amino-7-chloro-1-isopropyl-1H-indol-3-yl)-2-oxo-N-(2-(piperidin-1-yl)ethyl)acetamide hydrochloride] | 0.1 |  | 
10 | CC(C)n1cc(C(=O)C(=O)NCCN2CCCC2)c2ccccc21 [Example 10, 2-(1-Isopropyl-1H-indol-3-yl)-2-oxo-N-(2-(pyrrolidin-1-yl)ethyl)acetamide] | 0.013 |  | 
11 | COc1ccc2c(c1)c(C(=O)C(=O)NCCN1CCCCC1)cn2C(C)C [Example 11, 2-(1-Isopropyl-5-methoxy-1H-indol-3-yl)-2-oxo-N-(2-(piperidin-1-yl)ethyl)acetamide] | 0.31 |  | 
12 | Cc1ccc2c(c1)c(C(=O)C(=O)NCCN1CCCCC1)cn2C(C)C [Example 12, 2-(1-isopropyl-5-methyl-1H-indol-3-yl)-2-oxo-N-(2-(piperidin-1-yl)ethyl)acetamide] | 0.071 |  | 
13 | CC(C)n1cc(C(=O)C(=O)NC2CCN(CCCO)CC2)c2ccccc21 [Example 13, N-(1-(3-Hydroxypropyl)piperidin-4-yl)-2-(1-isopropyl-1H-indol-3-yl)-2-oxoacetamide] | 0.0024 |  | 
14 | CCCN1CCC(NC(=O)C(=O)c2cn(C(C)C)c3ccccc23)CC1 [Example 14, 2-(1-Isopropyl-1H-indol-3-yl)-2-oxo-N-(1-propylpiperidin-4-yl)acetamide] | 0.0027 |  | 
15 | CC(C)CN1CCC(CNC(=O)C(=O)c2cn(C(C)C)c3ccccc23)CC1 [Example 15, N-((1-Isobutylpiperidin-4-yl)methyl)-2-(1-isopropyl-1H-indol-3-yl)-2-oxoacetamide] | 0.016 |  | 
16 | CC(C)n1cc(C(=O)C(=O)NCCN2CCC(C(F)(F)F)CC2)c2ccccc21 [Example 16, 2-(1-Isopropyl-1H-indol-3-yl)-2-oxo-N-(2-(4-(trifluoromethyl)piperidin-1-yl)ethyl)acetamide] | 0.023 |  | 
17 | CC(C)n1cc(C(=O)C(=O)NCCN2CCCCC2)c2cccnc21 [Example 17, 2-(1-Isopropyl-1H-pyrrolo[2,3-b]pyridin-3-yl)-2-oxo-N-(2-(piperidin-1-yl)ethyl)acetamide] | 0.022 |  | 
18 | CCCC1CCN(CCNC(=O)C(=O)c2cn(C(C)C)c3ccccc23)CC1 [Example 18, 2-(1-Isopropyl-1H-indol-3-yl)-2-oxo-N-(2-(4-propylpiperidin-1-yl)ethyl)acetamide TFA salt] |  | 99 | 102
19 | CCCCN1CCC(NC(=O)C(=O)c2cn(C(C)C)c3ccccc23)CC1 [Example 19, N-(1-Butylpiperidin-4-yl)-2-(1-isopropyl-1H-indol-3-yl)-2-oxoacetamide] | 0.0025 |  | 
20 | COCCCN1CCC(NC(=O)C(=O)c2cn(C(C)C)c3ccccc23)CC1 [Example 20, 2-(1-Isopropyl-1H-indol-3-yl)-N-(1-(3-methoxypropyl)piperidin-4-yl)-2-oxoacetamide TFA salt] | 0.0069 |  | 
21 | CC(C)n1cc(C(=O)C(=O)NC2CCN(CCNS(C)(=O)=O)CC2)c2ccccc21 [Example 21, 2-(1-Isopropyl-1H-indol-3-yl)-N-(1-(2-(methylsulfonamido)ethyl)piperidin-4-yl)-2-oxoacetamide TFA salt] |  | 95 | 101
22 | CC(C)n1cc(C(=O)C(=O)NCCN2CCC(CCO)CC2)c2ccccc21 [Example 22, N-(2-(4-(2-Hydroxyethyl)piperidin-1-yl)ethyl)-2-(1-isopropyl-1H-indol-3-yl)-2-oxoacetamide hydrochloride] |  | 99 | 101
23 | CCC1CCN(CCNC(=O)C(=O)c2cn(C(C)C)c3ccccc23)CC1 [Example 23, N-(2-(4-ethylpiperidin-1-yl)ethyl)-2-(1-isopropyl-1H-indol-3-yl)-2-oxoacetamide hydrochloride] |  | 99 | 101
24 | CCCCC1CCN(CCNC(=O)C(=O)c2cn(C(C)C)c3ccccc23)CC1 [Example 24, N-(2-(4-Butylpiperidin-1-yl)ethyl)-2-(1-isopropyl-1H-indol-3-yl)-2-oxoacetamide] |  | 95 | 101
